Measurements reported in the METLIN SMRT retention time set (Domingo-Almenara et al. 2019).

Assay: gradient 5% acetonitrile 3 min, to 50% in 2 min, to 85% in 15 min, held 3 min, 100 µL/min
Details: column: Zorbax Extend-C18 2.1 x 50 mm; eluents: water / acetonitrile, 0.1% formic acid
Outline: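 Using water and acetonitrile that each contained 0.1% formic acid, mixtures of ~100 pure standards were separated at 100 μL/min on a Zorbax Extend-C18 column (2.1 × 50 mm, 1.8 μm). The HPLC fed a quadrupole time-of-flight mass spectrometer working in positive and negative ionization mode, with dead and dwell volumes of 40 μL and 900 μL. Data were acquired over 3 months. Retention time was read from computationally picked adduct peaks after manual inspection of each.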

| SMILES | RP-LC retention time |
| --- | --- |
| COC(=O)c1c(C)[nH]c(C(=O)N2CCC(CC(=O)N(C)Cc3ccco3)CC2)c1C | 728 s |
| CC(C)c1cccc(Nc2nc3ccncc3n(C(C)C)c2=O)c1 | 707 s |
| O=C(CCNc1c(-c2cccc(F)c2)nc2cnccn12)NCc1ccc(F)c(Cl)c1 | 806 s |
| CCN1C(=O)C2(CCN(S(=O)(=O)c3ccc(CC(C)C)cc3)CC2)c2ccccc21 | 587 s |
| O=C1[C@H]2CN(Cc3ccccc3)C[C@H]2C(=O)N1CCc1ccccc1 | 713 s |
| CCC(=O)Nc1ccc2c(c1)CN(C(=O)c1c(F)cccc1F)C(C(=O)N1CCCC1)C2 (configuration not stated) | 700 s |
| O=C(NCc1ccccn1)C1CCCN(c2ccc(Sc3ccc(Br)cc3)nn2)C1 (configuration not stated) | 702 s |
| O=S(=O)(c1ccc2c(c1)CCC2)N1CCC(c2noc(-c3cccc(F)c3)n2)CC1 | 1260 s |
| Cc1ccc2[nH]c(=O)c(CCC(=O)N3CCN(c4ncccn4)CC3)cc2c1 | 686 s |
| CCOc1ccc(NC(=O)N2CCc3cn(CC)c4cccc(c34)C2)cc1 | 952 s |
| CCOC(=O)c1[nH]c(C)c(CCC(=O)N2CCC(C(=O)NC(C)C)CC2)c1C | 683 s |
| COCCCNC(=O)[C@@H]1[C@H](c2cc(OC)c(OC)c(OC)c2)c2cc3c(cc2[C@H](O)[C@H]1CO)OCO3 | 630 s |
| CCN1C=C(C(=O)OCc2cccc(Cl)c2)C(C)=NS1(=O)=O | 1050 s |
| CCc1noc(NC(C)=O)c1-c1ccc(C)c(S(=O)(=O)Nc2ccc(C)c(F)c2)c1 | 856 s |
| CC(=O)Nc1nc2ccc(CC(=O)Nc3ccc(F)cc3)cc2s1 | 714 s |
| Cc1oc(-c2[nH]ncc2C(=O)N(C)C)cc1S(=O)(=O)Nc1ccc(C(C)C)cc1 | 770 s |
| CCOC(=O)N1CCN(c2nc(F)c3c(c2F)S(=O)(=O)CCN3Cc2ccco2)CC1 | 962 s |
| CCCNC(=O)C1CCCN(c2nc3ncn(CC(=O)Nc4ccccc4Cl)c(=O)c3s2)C1 (configuration not stated) | 738 s |
| O=S(=O)(c1cc(F)cc(F)c1)N1CCC(c2noc(-c3ccc(F)cc3)n2)CC1 | 1170 s |
| COc1cc(Cl)ccc1C(=O)N1CCC(OC2CCN(C)CC2)CC1 | 606 s |

| SMILES | RP-LC retention time |
| --- | --- |
| N#Cc1cccc(NC(=O)Cn2cnc3nc4c(cc3c2=O)CCCC4)c1 | 700 s |
| COC(=O)c1cnn(-c2ccc(C(=O)N3CCCC3)cc2)c1N | 654 s |
| COc1ccc(N2CCN(c3cc(SCC(=O)Nc4cc(Cl)ccc4OC)ncn3)CC2)cc1 | 1200 s |
| CC(=O)Nc1ccc(NC(=O)C2CC(=O)N(CCc3c[nH]c4ccc(Cl)cc34)C2)cc1 (configuration not stated) | 679 s |
| O=C(Cc1cccs1)NC1CC(=O)N(C2CC2)C1 (configuration not stated) | 584 s |
| Cc1cc(-c2nnc(C3CC3)o2)c(C)n1CC(=O)NCc1cc(F)cc(F)c1 | 813 s |
| O=C(C1CCN(S(=O)(=O)Cc2ccc(F)cc2)CC1)N1CCCC1 | 735 s |
| Cc1cc(NC(=O)C2CCN(c3cc(N4CCCC4)ncn3)CC2)ccc1F | 693 s |
| CCC(=O)N1CCC(N2C(=O)C(O)C23CCCCC3)CC1 (configuration not stated) | 590 s |
| COc1cc(-c2nc3ccc(Cl)cn3c2Nc2ccc3c(c2)OCCO3)ccc1O | 680 s |
| CCOc1cc(CNC(=O)C2CCCN(C(=O)c3cc(C)cc(C)c3)C2)cc(OCC)c1OCC (configuration not stated) | 968 s |
| CN(CC(=O)NC1CCCC1)S(=O)(=O)c1ccc2nc(-c3ccccc3)[nH]c2c1 | 754 s |
| Cc1ccc(NC(=O)C2CCCN(c3ncnc4c3nc3n4CCCCC3)C2)c(Br)c1 (configuration not stated) | 930 s |
| CSc1cccc(NC(=O)Cn2ccn3nc(-c4ccccc4)c(CO)c3c2=O)c1 | 852 s |
| CCCN1C(=O)C(NC(=O)CCc2ccccc2)(C(F)(F)F)C(C(=O)OC)=C1C (configuration not stated) | 916 s |
| CCCNC(=O)N1CCCN(C2=NS(=O)(=O)C(c3ccc(C)c(C)c3)=C2C)CC1 | 809 s |
| O=C(NCC1CCN(C(=O)Oc2ccccc2)CC1)c1cnccn1 | 689 s |
| O=C(Nc1ccc2ccccc2c1)c1ccc(Cl)cc1Cl | 1130 s |
| CN1CCN(C(CNC(=O)c2ccc3nsnc3c2)c2ccc(F)cc2)CC1 (configuration not stated) | 567 s |
| CCS(=O)(=O)c1ccc(-c2ccc(NS(=O)(=O)c3ccc(Cl)s3)cc2)nn1 | 810 s |

| SMILES | RP-LC retention time |
| --- | --- |
| COCCn1c(C)c(C)c(S(=O)(=O)c2ccc(C)cc2)c1NC(=O)C1CCCO1 (configuration not stated) | 859 s |
| CC1CCCCN1CCCNC(=O)CCCn1c(=O)c2cccn2c2ccccc21 (configuration not stated) | 627 s |
| Cc1cccc(NC(=O)Cn2cnc3nc(N4CCCC(C(=O)NC5CC5)C4)sc3c2=O)c1C (configuration not stated) | 688 s |
| CNC(=O)c1cc(N2CCCC2)nc2ccc(F)cc12 | 591 s |
| O=C(Cc1cccc(Cl)c1)N1CC2CN(S(=O)(=O)c3cccc(F)c3)CC(C1)O2 | 900 s |
| O=C(c1ccc(Br)cc1)N1CCc2nc(-c3ccc(Cl)cc3)ncc2C1 | 1160 s |
| O=C(Cn1cnc2nc3c(cc2c1=O)CCCC3)Nc1cccc(C(F)(F)F)c1 | 823 s |
| Cc1ccc(Cn2c(N3CCC(C(=O)NCC(C)C)CC3)nc3ccsc3c2=O)cc1 | 920 s |
| O=C(NCC1CCOCC1)Nc1cccc(F)c1 | 698 s |
| O=C(NC1CC1)[C@@H]1C[C@H](Oc2cccnc2)CN1C(=O)c1cccs1 | 574 s |
| CCN(CC)C(=O)N1CCC2(CC1)CC(N1CCN(c3ccccc3)CC1)CCO2 (configuration not stated) | 582 s |
| Cn1c(=O)c(N2CCN(C(=O)c3ccc(F)cc3Cl)CC2)nc2ccncc21 | 616 s |
| COc1ccc(Cn2nc3ccc(S(=O)(=O)N4CCCC4)cn3c2=O)cc1F | 862 s |
| Cc1cccc(NC(=O)N2CCCC(Cn3cnc4cccnc43)C2)c1C (configuration not stated) | 672 s |
| O=C(CCC1CCCC1)Nc1nc(-c2ccccc2)cs1 | 1180 s |
| CC(C)Sc1ccc(CC(=O)NCc2ccsc2)cc1 | 908 s |
| O=C(Nc1ccccc1)C1CCc2sc(C(=O)N3CCOCC3)cc2C1 (configuration not stated) | 708 s |
| CCCN1CCN(C(=O)C2CCN(c3nc4cccnc4s3)CC2)CC1 | 574 s |

Continued, values first:

| RP-LC retention time | SMILES |
| --- | --- |
| 1230 s | CCC(C)(C)NS(=O)(=O)c1cccc(-c2nc(-c3ccccc3)no2)c1 |
| 1180 s | Cc1cc(-c2nc(-c3ccc(F)cc3)no2)c(C)n1CC(=O)N1CCCC(C)C1 (configuration not stated) |
| 804 s | Cc1cc(OCC(=O)Nc2ccccc2)nc(N2CCN(c3ccccc3)CC2)n1 |
| 949 s | Cc1ccc(C)c(N2CCN(Cc3nc(-c4ccc(N5CCOCC5)nc4)no3)CC2)c1 |
| 864 s | Cc1onc(-c2ccccc2Cl)c1C(=O)Nn1cnc2c(cnn2C(C)(C)C)c1=O |
| 614 s | Cn1cnc2cc(-c3noc(CNC(=O)c4ccccc4)n3)ccc21 |
| 679 s | COc1cccc(OC)c1C(=O)N1CCCC1c1cc(C)on1 (configuration not stated) |
| 1060 s | CCc1nc(-c2csc(S(=O)(=O)N3CCCC(C(=O)NCc4ccc(C)cc4)C3)c2)no1 (configuration not stated) |
| 885 s | Brc1ccc(OCc2nn3c(-c4cccnc4)nnc3s2)cc1 |
| 1040 s | Cc1nc2c(sc3nc(-c4ccccc4)ccc32)c(=O)n1CC(=O)Nc1ccc(F)cc1 |
| 742 s | CC(C)n1cnc2ccc(-c3noc(-c4ccc(F)cc4)n3)cc21 |
| 768 s | Cn1nc(-c2nc(C3CC3)no2)c2c1CCN(C(=O)Nc1ccc(F)cc1)C2 |
| 688 s | CCOC(=O)c1nc(Nc2ccc(S(=O)(=O)Nc3ncccn3)cc2)c2ccccc2n1 |
| 1060 s | CCOc1cccc(-c2noc(CCn3nc(-c4ccc(F)cc4)ccc3=O)n2)c1 |
| 1020 s | Cn1c(=O)n(CC(=O)Nc2ccccc2Cl)c(=O)c2cnc(-c3ccccc3)nc21 |
| 649 s | Cc1cc(N2CCN(C(=O)c3cccc(C(F)(F)F)c3)CC2)nc2nnc(C)n12 |
| 986 s | CCc1noc(-c2nc(-c3ccccc3OC)no2)n1 |
| 978 s | O=C(Nc1nc(-c2cccc3ccccc23)cs1)C1CCCO1 (configuration not stated) |
| 562 s | CCN1CCN(c2nccc(-c3cnc4nc(-c5ccncc5)nn4c3C)n2)CC1 |
| 1000 s | CCn1c(=O)oc2cc(-c3noc(-c4cccc5[nH]ccc45)n3)ccc21 |
| 1270 s | Cc1ccc(-c2noc(Cn3cnc4c(cnn4-c4ccc(C)c(Cl)c4)c3=O)n2)cc1 |
| 877 s | COc1ccc(-c2noc(-c3nn(-c4ccc(Cl)cc4)ccc3=O)n2)cc1 |
| 1070 s | CCn1c(=O)c2ccccc2n(Cc2nc(-c3ccccc3C)no2)c1=O |
| 843 s | COc1cccc(-c2nc(-c3ccc4c(c3)nc(C)c(=O)n4C)no2)c1 |
| 723 s | CNC(=O)N1CC(c2nc(-c3ccc(F)cc3)no2)C2(CCOCC2)C1 (configuration not stated) |
| 966 s | Cn1c(=O)c(N2CCN(C(=O)c3ccc(F)c(Cl)c3)CC2)nc2ccccc21 |
| 766 s | CN(CCc1noc(-c2ccc(C(=O)N3CCOCC3)cc2)n1)C(=O)COc1ccc(Cl)cc1 |
| 678 s | COc1cc(C2CC(=O)c3c(C)nc(N4CCN(c5ccccn5)CC4)nc3C2)cc(OC)c1OC (configuration not stated) |
| 688 s | CCNC(=O)c1nc(Nc2ccc(F)cc2)c2ccccc2n1 |
